One series deals with PI3Kα (Homo sapiens, UniProt P42336). As to the kind of experiment: PI3Kα fluorescence polarization assay. It is filed as biochemical. The following applies: 20 μM PIP2, 25 μM ATP. The essentials:
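Kinase reaction in 20 mM HEPES pH 7.5, 2 mM MgCl2, 0.05% CHAPS with final 20 μM diC8-PIP2 and 25 μM ATP, 30-60 min at room temperature. Stopped with 10 nM TAMRA-labelled probe plus 2.5 uM GST-murine GRP; fluorescence polarization read after 90-110 minutes.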

Another series deals with human TOR (FLAG-TOR) (Homo sapiens, UniProt P42345). As to the kind of experiment: mTOR enzyme assay (DELFIA format, purified enzyme). The series is classed as biochemical. The following applies: 800 ng/ml FLAG-TOR, 100 μM ATP, 1.25 μM His6-S6K; read-out: mTOR Kinase IC50.
In series [1] the test system is MDA468 breast tumor cells. As to the kind of experiment: In vitro cell growth assay (MTS), MDA468. The following applies: three days after drug treatment. It is filed as cell-based, human. In short, it runs like this: (§1)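 Tumor cells plated ~3000/well; inhibitors in DMSO added one day later (final DMSO 0.25%). After three days of treatment, viable cell density read by MTS conversion, absorbance at 490 nm. Effect expressed relative to untreated control growth.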

In series [2] the test system is LNCap prostate tumor cells. Nature of the series: In vitro cell growth assay (MTS), LNCap. It is filed as cell-based, human. The following applies: three days after drug treatment. In short, it runs like this: as §1
The conditions of series [3]: single- and repeat-dosing; cited from earlier work.
Series [4] relates to human tumor xenograft models. The following applies: cited from earlier work.
Series [5] concerns acute lymphoblastic leukemia xenograft. The following applies: in vivo; cited from earlier work.
Another series deals with mTOR (Homo sapiens, UniProt P42345). The following applies: read-out: mTOR IC50; literature; mTOR complexes / mTOR enzymes; cited from earlier work.

Each structure is given as a SMILES string. pIC50: −log10 of the molar value. Where two headings read alike, the source gives them in different places.

PI3Kα, sequence (P42336 whole entry, species assumed): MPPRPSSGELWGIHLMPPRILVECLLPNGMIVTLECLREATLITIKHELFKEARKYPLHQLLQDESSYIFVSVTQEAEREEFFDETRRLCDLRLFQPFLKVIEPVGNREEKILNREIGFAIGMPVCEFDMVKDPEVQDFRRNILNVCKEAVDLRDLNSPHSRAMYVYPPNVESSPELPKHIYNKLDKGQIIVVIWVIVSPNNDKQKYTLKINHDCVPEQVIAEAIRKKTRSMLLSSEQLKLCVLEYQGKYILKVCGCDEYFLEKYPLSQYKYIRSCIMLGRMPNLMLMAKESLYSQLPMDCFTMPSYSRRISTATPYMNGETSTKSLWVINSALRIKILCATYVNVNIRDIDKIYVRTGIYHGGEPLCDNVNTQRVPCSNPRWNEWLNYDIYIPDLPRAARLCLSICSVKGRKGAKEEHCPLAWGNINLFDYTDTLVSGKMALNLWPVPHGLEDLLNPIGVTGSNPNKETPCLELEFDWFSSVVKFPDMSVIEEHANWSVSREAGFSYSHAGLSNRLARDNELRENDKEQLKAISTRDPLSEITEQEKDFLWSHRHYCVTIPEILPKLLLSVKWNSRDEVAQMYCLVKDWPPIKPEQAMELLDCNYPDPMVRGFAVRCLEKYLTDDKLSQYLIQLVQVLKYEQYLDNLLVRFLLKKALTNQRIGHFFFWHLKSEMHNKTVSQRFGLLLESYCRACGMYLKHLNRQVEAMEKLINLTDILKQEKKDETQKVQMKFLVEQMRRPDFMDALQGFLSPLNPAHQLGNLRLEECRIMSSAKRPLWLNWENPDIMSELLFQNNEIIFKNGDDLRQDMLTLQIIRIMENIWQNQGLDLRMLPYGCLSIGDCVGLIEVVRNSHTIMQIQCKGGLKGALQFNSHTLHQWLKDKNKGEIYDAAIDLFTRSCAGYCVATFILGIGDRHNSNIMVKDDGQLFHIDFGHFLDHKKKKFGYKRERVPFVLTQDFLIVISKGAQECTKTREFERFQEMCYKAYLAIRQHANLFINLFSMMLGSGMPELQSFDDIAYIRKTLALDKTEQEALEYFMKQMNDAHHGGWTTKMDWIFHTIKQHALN
PI3Kα, sequence (P27986 whole entry partner, species assumed): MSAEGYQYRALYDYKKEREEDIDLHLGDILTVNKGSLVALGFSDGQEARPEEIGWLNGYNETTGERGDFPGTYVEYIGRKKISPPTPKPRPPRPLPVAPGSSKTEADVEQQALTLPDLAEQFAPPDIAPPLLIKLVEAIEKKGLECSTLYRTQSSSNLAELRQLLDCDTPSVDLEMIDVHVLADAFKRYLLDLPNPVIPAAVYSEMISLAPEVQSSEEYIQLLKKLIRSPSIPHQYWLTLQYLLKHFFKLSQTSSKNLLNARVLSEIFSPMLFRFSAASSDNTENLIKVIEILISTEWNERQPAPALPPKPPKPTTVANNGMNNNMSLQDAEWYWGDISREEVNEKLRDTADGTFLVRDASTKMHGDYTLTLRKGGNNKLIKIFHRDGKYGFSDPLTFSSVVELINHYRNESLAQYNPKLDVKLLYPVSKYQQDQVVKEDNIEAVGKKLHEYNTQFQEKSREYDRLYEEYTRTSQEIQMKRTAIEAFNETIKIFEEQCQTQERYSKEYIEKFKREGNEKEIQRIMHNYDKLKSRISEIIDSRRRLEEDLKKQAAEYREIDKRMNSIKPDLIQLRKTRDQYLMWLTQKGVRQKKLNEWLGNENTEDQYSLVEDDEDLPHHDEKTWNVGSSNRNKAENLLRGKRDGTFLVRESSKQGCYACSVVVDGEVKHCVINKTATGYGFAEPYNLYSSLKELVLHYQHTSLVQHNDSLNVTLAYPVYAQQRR

In general, pIC50 refers to the IC50 on a negative log10 scale, so that one unit is a factor of ten. For the molecule `O=C(Cc1cccs1)Nc1ccc2[nH]c(=O)cc(Oc3ccccc3)c2c1`, the pIC50 against PI3Kα was 6.42; on human TOR (FLAG-TOR), 4.84; in series [1] (Homo sapiens, 72 h), 4.46; in series [2] (Homo sapiens, LNCaP, 72 h), 4.66.

Regarding `CN(C)CC(=O)Nc1ccc2[nH]c(=O)cc(Oc3ccccc3)c2c1`, the pIC50 against PI3Kα is less than 5.00; on human TOR (FLAG-TOR), less than 4.70; in series [1] (Homo sapiens, 72 h), less than 4.22; in series [2] (Homo sapiens, LNCaP, 72 h), less than 4.22.

With `O=c1cc(Oc2cccc(F)c2)c2ccccc2[nH]1`, the pIC50 against PI3Kα was less than 5.00; at human TOR (FLAG-TOR) it was 5.95; in [1] (Homo sapiens, 72 h) it was less than 4.22; in [2] (Homo sapiens, LNCaP, 72 h), less than 4.22.

In the case of `COC(=O)c1cc(Oc2cc(=O)[nH]c3ccccc23)ccc1OC`, the pIC50 was less than 5.00 against PI3Kα; 5.89 on human TOR (FLAG-TOR); less than 4.22 in [1] (Homo sapiens, 72 h); 5.10 in series [2] (Homo sapiens, LNCaP, 72 h).

On to `O=c1cc(Oc2cccc3ccccc23)c2ccccc2[nH]1`, for which the pIC50 is less than 5.00 on PI3Kα; 6.64 at human TOR (FLAG-TOR); less than 4.22 in series [1] (Homo sapiens, 72 h); less than 4.22 in series [2] (Homo sapiens, LNCaP, 72 h).

On to `O=c1cc(Oc2ccccc2C(F)(F)F)c2ccccc2[nH]1`, for which the pIC50 against PI3Kα is 6.51; at human TOR (FLAG-TOR), 5.78; in series [1] (Homo sapiens, 72 h), less than 4.22; in [2] (Homo sapiens, LNCaP, 72 h), less than 4.22.

For `NCc1ccc(Oc2cc(=O)[nH]c3ccccc23)cc1`, the pIC50 is less than 5.00 against PI3Kα; 5.40 at human TOR (FLAG-TOR); 4.46 in series [1] (Homo sapiens, 72 h); 4.92 in series [2] (Homo sapiens, LNCaP, 72 h).

Regarding `O=c1cc(Oc2ccc(-c3ccc(NCCN4CCOCC4)nc3)cc2)c2ccccc2[nH]1`, the pIC50 against PI3Kα was less than 5.00; at human TOR (FLAG-TOR), 5.97; in series [1] (Homo sapiens, 72 h), 5.10; in series [2] (Homo sapiens, LNCaP, 72 h), 5.98.

With `CN(C)CCCOc1ccc(-c2cccc(Oc3cc(=O)[nH]c4ccccc34)c2)cn1`, the pIC50 against PI3Kα was less than 5.00; at human TOR (FLAG-TOR), 7.10; in [1] (Homo sapiens, 72 h) it was 5.00; in series [2] (Homo sapiens, LNCaP, 72 h), 5.42.

In the case of `O=c1cc(Oc2cccc(-c3cnn(CCN4CCOCC4)c3)c2)c2ccccc2[nH]1`, the pIC50 was less than 5.00 on PI3Kα; 6.85 on human TOR (FLAG-TOR); 5.00 in [1] (Homo sapiens, 72 h); 5.66 in series [2] (Homo sapiens, LNCaP, 72 h).

On to `CN1CCN(c2cc(-c3ccc(Oc4cc(=O)[nH]c5ccccc45)cc3)ccn2)CC1`, for which the negative-log IC50 (pIC50) against PI3Kα is 5.05; on human TOR (FLAG-TOR) it was 6.25; in series [1] (Homo sapiens, 72 h), 5.92; in series [2] (Homo sapiens, LNCaP, 72 h) it was 6.10.

Turning to `O=c1cc(Oc2ccccc2)c2cc(Cl)ccc2[nH]1`, the pIC50 against PI3Kα is 5.29; at human TOR (FLAG-TOR), 5.17; in series [1] (Homo sapiens, 72 h) it was less than 4.22; in series [2] (Homo sapiens, LNCaP, 72 h) it was 4.89.

For the molecule `COc1ccc(Oc2cc(=O)[nH]c3ccccc23)cc1`, the pIC50 at PI3Kα is 4.96; on human TOR (FLAG-TOR), 6.27; in series [1] (Homo sapiens, 72 h), less than 4.22; in series [2] (Homo sapiens, LNCaP, 72 h), less than 4.22.

In the case of `O=c1cc(Oc2ccc(F)cc2)c2ccccc2[nH]1`, the pIC50 at PI3Kα is 5.80; on human TOR (FLAG-TOR), 6.22; in series [1] (Homo sapiens, 72 h), less than 4.22; in series [2] (Homo sapiens, LNCaP, 72 h), 4.74.

With `Cc1ccc(Oc2cc(=O)[nH]c3ccccc23)cc1`, the pIC50 at PI3Kα was 5.38; at human TOR (FLAG-TOR) it was 5.94; in [1] (Homo sapiens, 72 h), less than 4.22; in series [2] (Homo sapiens, LNCaP, 72 h) it was 4.74.

As usually defined, the melting point is the temperature, or range, at which the solid turns liquid. For `O=c1cc(Oc2cccc(OCc3ccccc3)c2)c2ccccc2[nH]1` [Example 57, 4-[3-(benzyloxy)phenoxy]quinolin-2(1H)-one], the melting point fell in the range of 262 to 265 °C.

`O=c1cc(Oc2cccnc2)c2ccccc2[nH]1` [Example 119, 4-(pyridin-3-yloxy)quinolin-2(1H)-one]: the melting point is 242 to 243 °C.

Consider `O=c1cc(Oc2ccccn2)c2ccccc2[nH]1` [Example 137, 4-(pyridin-2-yloxy)quinolin-2(1H)-one], for which the melting point is more than 360 °C.

As to `CN1CCN(c2cccc(Oc3cc(=O)[nH]c4ccccc34)c2)CC1` [Example 140, 4-[3-(4-methylpiperazin-1-yl)phenoxy]quinolin-2(1H)-one], the melting point is 218 to 221 °C.

Consider `CN(Cc1cccnc1)c1cccc(Oc2cc(=O)[nH]c3ccccc23)c1` [Example 161, 4-{3-[methyl(pyridin-3-ylmethyl)amino]phenoxy}quinolin-2(1H)-one], for which the melting point is 187 to 193 °C (dec.).

`O=C1NC(=O)/C(=C/c2ccc3nccc(-c4ccncc4)c3c2)S1` [GSK-1059615]: the “exposure in phase 1 clinical study” value in [3] was “lack of sufficient exposure”.

With `Cn1c(=O)n(-c2ccc(C(C)(C)C#N)cc2)c2c3cc(-c4cnc5ccccc5c4)ccc3ncc21` [NVP-BEZ-235, 2-methyl-2-(4-(3-methyl-2-oxo-8-(quinolin-3-yl)-2,3-dihydro-1H-imidazo[4,5-c]quinolin-1-yl)phenyl)propanenitrile], the “activity in human tumor xenograft models” value in [4] (prostrate (PC-3) and glioblastoma (U-87)) is “demonstrated activity”.

`Oc1cccc(-c2nc(N3CCOCC3)c3oc4ncccc4c3n2)c1` [PI103, 3-(4-(4-morpholinyl)pyrido[3′,2′:4,5]furo[3,2-d]pyrimidin-2-yl)phenol]: the “activity in human tumor xenograft models” value in series [4] (I.P. dosing in mice, U87MG, PC3, MDA-MB-468, MDA-MB-435, HCT 116, SKOV3, IGROV-1) is on record as “demonstrated activity”.

Take `CO[C@H]1C[C@@H]2CC[C@@H](C)[C@@](O)(O2)C(=O)C(=O)N2CCCC[C@H]2C(=O)O[C@H]([C@H](C)C[C@@H]2CC[C@@H](OC(=O)C(C)(CO)CO)[C@H](OC)C2)CC(=O)[C@H](C)/C=C(\C)[C@@H](O)[C@@H](OC)C(=O)[C@H](C)C[C@H](C)/C=C/C=C/C=C/1C` [Torisel]: in series [5], the “activity in NOS/SCID xenograft mouse model of acute lymphoblastic leukemia” value is listed as “active”.

`FC(F)c1nc2ccccc2n1-c1nc(N2CCOCC2)nc(N2CCOCC2)n1` [ZSTK474, 2-(2-difluoromethylbenzoimidazol-1-yl)-4,6-dimorpholino-1,3,5-triazine]: in series [4] (chronic oral administration, 400 mg/kg, A549, PC-3, WiDr), the “tumor growth in mouse human xenograft cancer models” value is “completely inhibited growth”. For the same molecule, the pIC50 at mTOR is less than 5.00.

As for `O=c1cc(Oc2cccc(NCc3cccnc3Cl)c2)c2ccccc2[nH]1` [drawing 207], the pIC50 against PI3Kα was 4.96; on human TOR (FLAG-TOR) it was 6.89; in [1], less than 4.22; in [2] (Homo sapiens, LNCaP, 72 h), 5.28.

With `O=c1cc(Oc2cccc(NCc3cccnc3Cl)c2)c2ccccc2[nH]1` [drawing 217], the pIC50 at PI3Kα was less than 5.00; on human TOR (FLAG-TOR), 6.82; in [1] it was 5.00; in [2], 5.38.

Regarding `Cc1cccc(Oc2cc(=O)[nH]c3ccccc23)c1` [drawing 249], the pIC50 at PI3Kα was 6.13; on human TOR (FLAG-TOR), 6.62; in series [1], 4.70; in series [2], 5.12.

`Cc1cccc(Oc2cc(=O)[nH]c3ccccc23)c1` [drawing 313]: the negative-log IC50 (pIC50) at PI3Kα was less than 5.00; on human TOR (FLAG-TOR), 6.30; in series [1] (Homo sapiens, 72 h) it was 4.40; in series [2], 4.22.

Regarding `CN(Cc1cccnc1)c1cccc(Oc2cc(=O)[nH]c3ccccc23)c1` [drawing 372], the pIC50 at PI3Kα is 5.71; at human TOR (FLAG-TOR) it was 6.38; in series [1] (Homo sapiens, 72 h) it was 4.70; in series [2] (Homo sapiens, LNCaP, 72 h), 4.89.

With `O=c1cc(Oc2cccnc2)c2ccccc2[nH]1` [drawing 388], the pIC50 on PI3Kα is less than 5.00; on human TOR (FLAG-TOR), 5.94; in [1] (Homo sapiens, 72 h), less than 4.22; in series [2] (Homo sapiens, LNCaP, 72 h), less than 4.22.
